Test results: patent US3952108A, “Scopolamine derivatives for treating ulcers and spasms” (Istituto de Angeli S.p.A., priority 1972, dated 1976)

Key:
Shay ulcer in rats = test: Action on Shay ulcer in rats by intraduodenal route; format: in vivo, rat; settings: 100 mg/Kg i.d., activity of scopolamine bromobutylate equal to 1
From the text: Action on Shay ulcer in rats by intraduodenal route according to Shay H., Komarov S. A., Fels S. S., Meranze D., Gruenstein M. and Siplet H., Gastroenterology, 5, 43-61 (1945).
(§1) The above experiments have been carried out in comparison with scopolamine bromobutylate as a reference. The results are shown in the following table and are expressed on the basis of the activity of scopolamine bromobutylate being equal to 1.

[1] = Overall evaluation of the spasmolytic and anti-ulcer tests; settings: versus scopolamine bromobutylate
From the text: The properties of the new compounds may be illustrated by the results of the following experiments.
as §1

[2] = tested on: rabbit choledochoduodenal junction; test: Spasmolytic activity "in vivo" on rabbit choledochoduodenal junction stimulated by neostigmine; settings: 10 mcg/Kg i.v.; neostigmine 60 mcg/Kg i.v.; activity of scopolamine bromobutylate equal to 1
From the text: Spasmolytic activity "in vivo" on rabbit choledochoduodenal junction stimulated by neostigmine (60 mcg/Kg i.v.), after i.v. administration of the compound under examination, according to Luoma P., Acta Pharmacol. e Toxicol., 29, suppl. 1, 5-55 (1971).
as §1

[3] = tested on: gastric secretion in rats; test: Action on gastric secretion in rats after intraduodenal administration; format: in vivo, rat; settings: 40 mg/Kg i.d., activity of scopolamine bromobutylate equal to 1
From the text: Action on gastric secretion in rats after intraduodenal administration according to Birnbaum G., Medicina Psicosomatica, 13, 1-4 (1968).
as §1

SMILES: C[N+]1(CC2CC2)[C@@H]2C[C@H](OC(=O)[C@H](CO)c3ccccc3)C[C@H]1[C@@H]1O[C@@H]12 (stereo partly drawn) [DA-3177, scopolamine-N-(cyclopropyl-methyl)-bromide]
- % of animals protected from ulcer, relative to scopolamine bromobutylate = 1 (Shay ulcer in rats): 1.5
- Activity compared with the reference compound, taking into account the relevant toxicities [1]: higher activities than the reference compound
- % increase of flux, relative to scopolamine bromobutylate = 1 [2]: 0.9
- inhibition % of the gastric juice, relative to scopolamine bromobutylate = 1 [3]: 1

SMILES: CC1CC1C[N+]1(C)[C@@H]2C[C@H](OC(=O)[C@H](CO)c3ccccc3)C[C@H]1[C@@H]1O[C@@H]12 (stereo partly drawn) [DA-3235, Scopolamine-N-(2-methyl-cyclopropyl-methyl)-bromide]
- % of animals protected from ulcer, relative to scopolamine bromobutylate = 1 (Shay ulcer in rats): 2
- Activity compared with the reference compound, taking into account the relevant toxicities [1]: higher activities than the reference compound
- % increase of flux, relative to scopolamine bromobutylate = 1 [2]: 0.8
- inhibition % of the gastric juice, relative to scopolamine bromobutylate = 1 [3]: 0.8

SMILES: C[N+]1(CCC2CC2)[C@@H]2C[C@H](OC(=O)[C@H](CO)c3ccccc3)C[C@H]1[C@@H]1O[C@@H]12 (stereo partly drawn) [DA-3236, scopolamine-N-(cyclopropyl-ethyl)-bromide]
- % of animals protected from ulcer, relative to scopolamine bromobutylate = 1 (Shay ulcer in rats): 2
- % increase of flux, relative to scopolamine bromobutylate = 1 [2]: 0.9
- inhibition % of the gastric juice, relative to scopolamine bromobutylate = 1 [3]: 1.1

SMILES: C[N+]1(CC2CCC2)[C@@H]2C[C@H](OC(=O)[C@H](CO)c3ccccc3)C[C@H]1[C@@H]1O[C@@H]12 (stereo partly drawn) [DA-3237, Scopolamine-N-(cyclobutyl-methyl)-bromide]
- % of animals protected from ulcer, relative to scopolamine bromobutylate = 1 (Shay ulcer in rats): 2
- Activity compared with the reference compound, taking into account the relevant toxicities [1]: higher activities than the reference compound
- % increase of flux, relative to scopolamine bromobutylate = 1 [2]: 1.2
- inhibition % of the gastric juice, relative to scopolamine bromobutylate = 1 [3]: 1.2

SMILES: C[N+]1(CC2CO2)[C@@H]2C[C@H](OC(=O)[C@H](CO)c3ccccc3)C[C@H]1[C@@H]1O[C@@H]12 (stereo partly drawn) [DA-3245, scopolamine-N-(2,3-epoxypropyl)-bromide]
- % of animals protected from ulcer, relative to scopolamine bromobutylate = 1 (Shay ulcer in rats): 1.5
- % increase of flux, relative to scopolamine bromobutylate = 1 [2]: 0.4
- inhibition % of the gastric juice, relative to scopolamine bromobutylate = 1 [3]: 1.4

SMILES: CCCC[N+]1(C)[C@@H]2C[C@@H](OC(=O)[C@H](CO)c3ccccc3)C[C@H]1[C@@H]1O[C@@H]12 (stereo partly drawn) [Scopolamine bromobutylate, scopolamine bromobutylate, reference compound]
- % of animals protected from ulcer, relative to scopolamine bromobutylate = 1 (Shay ulcer in rats): 1
- % increase of flux, relative to scopolamine bromobutylate = 1 [2]: 1
- inhibition % of the gastric juice, relative to scopolamine bromobutylate = 1 [3]: 1
